# Target: T1, APOL1 G1 (Homo sapiens, UniProt O14791, I384M/S342G)
# T1 sequence (O14791 28-398 S342G/I384M): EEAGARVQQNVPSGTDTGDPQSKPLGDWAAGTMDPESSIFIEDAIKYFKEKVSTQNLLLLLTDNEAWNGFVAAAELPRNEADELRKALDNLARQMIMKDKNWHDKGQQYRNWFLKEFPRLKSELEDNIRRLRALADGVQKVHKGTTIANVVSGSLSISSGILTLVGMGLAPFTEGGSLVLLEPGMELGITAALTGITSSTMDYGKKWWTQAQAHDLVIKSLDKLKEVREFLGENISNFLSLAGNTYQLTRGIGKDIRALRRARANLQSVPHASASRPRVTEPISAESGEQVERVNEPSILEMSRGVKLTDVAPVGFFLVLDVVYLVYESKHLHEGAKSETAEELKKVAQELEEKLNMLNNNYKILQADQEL
# Assay: Trypanosoma brucei brucei Lysis Assay Using APOL1 Recombinant Protein (AlamarBlue viability readout)
# Format: cell-based
# Settings: Trypanosome Assay
# In short: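 Percent viability comes from AlamarBlue (resazurin→resorufin) fluorescence interpolated on a standard curve of known parasite numbers, with no-APOL1 wells as 100%. Parasites (Lister 427 bloodstream form, 120,000/well, serum-free assay medium) meet 0.05 μg/mL APOL1 (~EC90). Compounds span a 10-point series, 0.1% DMSO final.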
compound,measurement,setting,value
"[2H]C1([2H])O[C@@]2(C[C@@H](c3cn(C)nn3)N[C@@H](C)C2)c2sc(Cl)cc2[C@]1([2H])O [Compound 385, (2S,4S,4′S,6S)-2′-chloro-4′,5′,5′-trideuterio-2-methyl-6-(1-methyltriazol-4-yl)spiro[piperidine-4,7′-thieno[2,3-c]pyran]-4′-ol]",IC50,"IP50 = IC50 for cell proliferation, read-out: Trypanosome Assay IP50",< 50 nM
same,Emax,read-out: Trypanosome Assay Max Activity (%),104%

# — patent US12421249B2, “Inhibitors of APOL1 and methods of using same” (Vertex Pharmaceuticals Incorporated, priority 2020, dated 2025)
